These results are taken from paper PMC7822874, “Chemoprotective antimalarials identified through quantitative high-throughput screening of Plasmodium blood and liver stage parasites” (Scientific Reports, 2021).

Like-named read-outs stand apart in the source and are kept apart here.

Data set [1] deals with Plasmodium falciparum Dd2 asexual blood stage parasites. The data set is described as follows: microbe, parasite or virus in culture. Further details: species or system Plasmodium falciparum Dd2 in human erythrocytes; single determination (one 11-point concentration-response curve). The following applies: 72 h.
The nature of data set [2]: in vitro. The following applies: human.
Setting [3] is: Plasmodium falciparum, DD2, Erythrocyte, read-out: AC50.
The mark [4] stands for this setting: HepG2-A16-CD81EGFP cells, uninfected.

Broadly, the AC50 is the concentration at which the activity in the assay is half-maximal. Broadly, the viability is a read-out of living cells in per cent, often relative to untreated cells. On to `CCOC(=O)c1c(-c2ccccc2)oc2ccc(O)c(CN3CCCC3)c12` [MLS000530619-01], for which the concentration at half-maximal activity (AC50) in data set [1] (setting [3]) worked out at 596 nM. In addition, in data set [2] (setting [4]), the viability at 48 h was determined as 98.8% and the viability at 48 h, 1 µM worked out at 98.8%.

For `CCCn1c(SCC(=O)Nc2cc(Cl)ccc2Cl)n[nH]c1=O` [MLS001002877-01], the AC50 in data set [1] (setting [3]) is 5310 nM. In data set [2] (setting [4]), the viability at 48 h, 1 µM was 97% and the viability at 48 h, 3 µM was determined as 94%.

Take `Oc1ccc(Cl)cc1-c1cc(C(F)(F)C(F)F)nc(-c2ccccc2)n1` [MLS000530553-01]: the concentration at half-maximal activity (AC50) in data set [1] (setting [3]) was found to be 841 nM. For the same compound, in data set [2] (setting [4]), the viability at 48 h, 1 µM is 93% and the viability at 48 h, 3 µM is 87%.

Turning to `COc1cc(O)c(C(CCN2CCN(c3ccccc3)CC2)c2ccc(N(C)C)cc2)c(OC)c1` (centres unmarked) [MLS000879536-01], the half-maximal activity concentration (AC50) in data set [1] (setting [3]) was determined as 596 nM. In data set [2] (setting [4]), the viability at 48 h, 1 µM was 102% and the viability at 48 h, 3 µM amounted to 99%.

For `O=C1C(c2ccccc2)=[N+](O)c2ccccc21` [MLS001241052-01], the concentration at half-maximal activity (AC50) in data set [1] (setting [3]) was 1880 nM. The viability at 66 h in data set [2] (setting [4]) was found to be 97.9%.

As for `Cc1cc(O)c(CN2CC=C(c3ccccc3)CC2)cc1C(C)C` [MLS001176749-01], in data set [1] (setting [3]), the AC50 was 335 nM. Besides, in data set [2], the viability at 48 h, 1 µM came out at 106% and the viability at 48 h, 3 µM was found to be 105%.

In the case of `CCCc1cc(=O)oc2cc(C)cc(OCC(=O)NC3CC3)c12` [MLS001159103-01], in data set [1] (setting [3]), the concentration at half-maximal activity (AC50) was 4730 nM. Besides, in data set [2] (setting [4]), the viability at 48 h, 1 µM amounted to 121% and the viability at 48 h, 3 µM worked out at 104%.

On to `CC1Cc2nc(SCC(=O)Nc3ccc4c(c3)OCO4)n(-c3ccc(F)cc3)c(=O)c2S1` (centres unmarked) [MLS000685016-01], for which, in data set [1] (setting [3]), the half-maximal activity concentration (AC50) is 2990 nM. Further, in data set [2] (setting [4]), the viability at 48 h, 1 µM came out at 97% and the viability at 48 h, 3 µM worked out at 93%.

For `CCCCN(CC)CCNC(=O)c1cc2c(-c3ccc(Cl)cc3)nn(C)c2s1` [NCGC00108995-01], the concentration at half-maximal activity (AC50) in data set [1] (setting [3]) turned out to be 668 nM. In data set [2] (setting [4]), the viability at 48 h, 1 µM was 102% and the viability at 48 h, 3 µM was found to be 97%.

Consider `CCN1CCCC1CNc1ncnc2c1[nH]c1ccc(Cl)cc12` (centres unmarked) [MLS000041736-01], for which the half-maximal activity concentration (AC50) in data set [1] (Plasmodium falciparum, DD2, Erythrocyte) amounted to 2990 nM. Also, in data set [2] (setting [4]), the viability at 48 h came to 98.5% and the viability at 48 h, 1 µM turned out to be 98.5%.

For `COc1cccc(N=C(S)N2CCN(S(=O)(=O)c3ccc(F)cc3)CC2)c1` [MLS001230093-01], the concentration at half-maximal activity (AC50) in data set [1] (setting [3]) is 2660 nM. Moreover, in data set [2] (setting [4]), the viability at 48 h, 1 µM was determined as 91% and the viability at 48 h, 3 µM worked out at 89%.

Take `Cc1c(O)c(CN2CCCCC2)cc2c1oc(=O)c1ccccc12` [MLS000551544-01]: the half-maximal activity concentration (AC50) in data set [1] (setting [3]) stood at 750 nM. Also, the viability at 66 h in data set [2] (setting [4]) was 95.3%.

With `CCC(C)c1ccc(O)c(NC(=O)c2cncc(Br)c2)c1` (centres unmarked) [MLS000062368-01], the AC50 in data set [1] (setting [3]) was determined as 2990 nM. Besides, in data set [2] (setting [4]), the viability at 48 h, 1 µM was 113% and the viability at 48 h, 3 µM came out at 103%.

Regarding `Oc1ccc(C2NCc3ccccc3-n3cccc32)cc1Cl` (centres unmarked) [MLS000878874-01], in data set [1] (read-out: AC50), the concentration at half-maximal activity (AC50) turned out to be 1190 nM. In addition, the viability at 66 h in data set [2] worked out at 108%.

In the case of `Cc1cc(C(C)c2ccccc2)c(O)c(CN2CCOCC2)c1C` (centres unmarked) [MLS000064176-01], in data set [1] (setting [3]), the AC50 was 2990 nM. In addition, in data set [2] (setting [4]), the viability at 48 h came out at 108% and the viability at 48 h, 1 µM came to 108%.

As for `O=S(=O)(c1ccc(Cl)cc1)N1CCN(C(S)=NCC2CCCO2)CC1` (centres unmarked) [MLS001124005-01], the concentration at half-maximal activity (AC50) in data set [1] (setting [3]) stood at 1880 nM. Further, in data set [2] (setting [4]), the viability at 48 h, 1 µM came out at 85% and the viability at 48 h, 3 µM is 85%.

As to `CCn1c2c(c(=N)c3c1CCC3)CCCC2` [MLS001047512-01], the AC50 in data set [1] (setting [3]) is 13300 nM. In addition, the viability at 66 h in data set [2] (setting [4]) stood at 100%.

In the case of `Clc1ccc2c(NCc3ccccn3)ccnc2c1` [MLS001178012-01], the concentration at half-maximal activity (AC50) in data set [1] (setting [3]) is 2110 nM. The viability at 66 h in data set [2] (setting [4]) worked out at 107%.

Regarding `CCN(CC)CCC(c1ccc(OC)cc1)c1c(O)cc(OC)cc1OC` (centres unmarked) [MLS000879488-01], in data set [1] (setting [3]), the AC50 was 6680 nM. For the same compound, the viability at 66 h in data set [2] (setting [4]) was 99.6%.

Turning to `Oc1ccccc1Nc1nc(-c2ccccc2O)nc2ccccc12` [MLS001164904-01], the AC50 in data set [1] (setting [3]) stood at 944 nM. Further, the viability at 66 h in data set [2] (setting [4]) was determined as 101%.
